Data published in patent publication US20250228835A1, “PYRIDINYLOXYPYRIDINES AND RELATED COMPOUNDS AND THEIR USE IN TREATING MEDICAL CONDITIONS” (Rectify Pharmaceuticals, Inc., priority 2024, published 2025).

Legend:
Type in all cases: cell-based
ABCB4 WT = molecular target: T1, ABCB4 WT (Homo sapiens, UniProt P21439); assay: ABCB4 WT assay: HiBit protein expression; details: HEK-293 cells stably expressing HiBit-tagged ABCB4 WT; 24 h treatment; top concentration 30 μM; read-out: ABCB4 WT EC50, Emax
T1 construct: expressed in transfected cells
T1 sequence (P21439 whole entry): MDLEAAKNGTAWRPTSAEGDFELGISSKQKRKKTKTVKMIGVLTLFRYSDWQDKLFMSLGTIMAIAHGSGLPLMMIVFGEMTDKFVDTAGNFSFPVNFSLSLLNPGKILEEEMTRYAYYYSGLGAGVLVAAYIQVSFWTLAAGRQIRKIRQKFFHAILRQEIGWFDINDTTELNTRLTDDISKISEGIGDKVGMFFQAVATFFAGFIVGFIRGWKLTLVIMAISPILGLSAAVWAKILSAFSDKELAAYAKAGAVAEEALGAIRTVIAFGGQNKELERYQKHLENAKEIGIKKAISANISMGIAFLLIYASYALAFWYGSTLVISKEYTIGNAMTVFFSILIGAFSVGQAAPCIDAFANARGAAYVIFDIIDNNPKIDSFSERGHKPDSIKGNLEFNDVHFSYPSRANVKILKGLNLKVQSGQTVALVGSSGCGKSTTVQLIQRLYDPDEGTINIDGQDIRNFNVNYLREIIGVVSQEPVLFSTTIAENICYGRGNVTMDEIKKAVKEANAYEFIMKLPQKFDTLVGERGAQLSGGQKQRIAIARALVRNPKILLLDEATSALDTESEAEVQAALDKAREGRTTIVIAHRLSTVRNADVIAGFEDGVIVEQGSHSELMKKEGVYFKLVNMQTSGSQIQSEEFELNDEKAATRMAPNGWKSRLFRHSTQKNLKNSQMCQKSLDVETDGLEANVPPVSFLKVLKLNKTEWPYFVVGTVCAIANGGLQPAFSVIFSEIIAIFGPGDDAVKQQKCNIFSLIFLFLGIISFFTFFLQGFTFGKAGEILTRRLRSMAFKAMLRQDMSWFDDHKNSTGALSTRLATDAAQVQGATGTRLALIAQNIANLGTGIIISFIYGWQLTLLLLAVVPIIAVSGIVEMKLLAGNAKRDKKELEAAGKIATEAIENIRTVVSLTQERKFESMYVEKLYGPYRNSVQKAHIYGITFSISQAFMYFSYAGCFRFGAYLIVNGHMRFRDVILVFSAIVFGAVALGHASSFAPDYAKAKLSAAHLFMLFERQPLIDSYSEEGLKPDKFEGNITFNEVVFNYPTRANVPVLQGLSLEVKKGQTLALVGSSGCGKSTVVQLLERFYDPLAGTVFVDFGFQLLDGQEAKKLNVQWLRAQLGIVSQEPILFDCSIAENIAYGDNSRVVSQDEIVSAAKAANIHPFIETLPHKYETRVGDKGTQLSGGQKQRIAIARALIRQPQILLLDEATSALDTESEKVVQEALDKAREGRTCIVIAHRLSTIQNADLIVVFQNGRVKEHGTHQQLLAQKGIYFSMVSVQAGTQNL
Procedure, shortened: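 HEK-293 cells stably expressing HiBit-tagged human ABCB4 WT, treated 24 h at 37 °C with 11-dose 3-fold dilutions, top final 30 μM in 0.3% DMSO. HiBit lytic reagent luminescence read after 1 h at 25 °C; Emax and EC50 derived.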

ABCA4 P1380L = molecular target: T2, ABCA4 P1380L (Homo sapiens, UniProt P78363, P1380L); assay: A4 correction dose-response assay: ABCA4 P1380L HiBit protein expression; details: HEK-293 cells stably expressing HiBit-tagged ABCA4 P1380L; 24 h treatment; top concentration 30 μM; read-out: ABCA4 P1380L EC50, Emax
T2 construct: expressed in transfected cells
T2 sequence (P78363 whole entry P1380L): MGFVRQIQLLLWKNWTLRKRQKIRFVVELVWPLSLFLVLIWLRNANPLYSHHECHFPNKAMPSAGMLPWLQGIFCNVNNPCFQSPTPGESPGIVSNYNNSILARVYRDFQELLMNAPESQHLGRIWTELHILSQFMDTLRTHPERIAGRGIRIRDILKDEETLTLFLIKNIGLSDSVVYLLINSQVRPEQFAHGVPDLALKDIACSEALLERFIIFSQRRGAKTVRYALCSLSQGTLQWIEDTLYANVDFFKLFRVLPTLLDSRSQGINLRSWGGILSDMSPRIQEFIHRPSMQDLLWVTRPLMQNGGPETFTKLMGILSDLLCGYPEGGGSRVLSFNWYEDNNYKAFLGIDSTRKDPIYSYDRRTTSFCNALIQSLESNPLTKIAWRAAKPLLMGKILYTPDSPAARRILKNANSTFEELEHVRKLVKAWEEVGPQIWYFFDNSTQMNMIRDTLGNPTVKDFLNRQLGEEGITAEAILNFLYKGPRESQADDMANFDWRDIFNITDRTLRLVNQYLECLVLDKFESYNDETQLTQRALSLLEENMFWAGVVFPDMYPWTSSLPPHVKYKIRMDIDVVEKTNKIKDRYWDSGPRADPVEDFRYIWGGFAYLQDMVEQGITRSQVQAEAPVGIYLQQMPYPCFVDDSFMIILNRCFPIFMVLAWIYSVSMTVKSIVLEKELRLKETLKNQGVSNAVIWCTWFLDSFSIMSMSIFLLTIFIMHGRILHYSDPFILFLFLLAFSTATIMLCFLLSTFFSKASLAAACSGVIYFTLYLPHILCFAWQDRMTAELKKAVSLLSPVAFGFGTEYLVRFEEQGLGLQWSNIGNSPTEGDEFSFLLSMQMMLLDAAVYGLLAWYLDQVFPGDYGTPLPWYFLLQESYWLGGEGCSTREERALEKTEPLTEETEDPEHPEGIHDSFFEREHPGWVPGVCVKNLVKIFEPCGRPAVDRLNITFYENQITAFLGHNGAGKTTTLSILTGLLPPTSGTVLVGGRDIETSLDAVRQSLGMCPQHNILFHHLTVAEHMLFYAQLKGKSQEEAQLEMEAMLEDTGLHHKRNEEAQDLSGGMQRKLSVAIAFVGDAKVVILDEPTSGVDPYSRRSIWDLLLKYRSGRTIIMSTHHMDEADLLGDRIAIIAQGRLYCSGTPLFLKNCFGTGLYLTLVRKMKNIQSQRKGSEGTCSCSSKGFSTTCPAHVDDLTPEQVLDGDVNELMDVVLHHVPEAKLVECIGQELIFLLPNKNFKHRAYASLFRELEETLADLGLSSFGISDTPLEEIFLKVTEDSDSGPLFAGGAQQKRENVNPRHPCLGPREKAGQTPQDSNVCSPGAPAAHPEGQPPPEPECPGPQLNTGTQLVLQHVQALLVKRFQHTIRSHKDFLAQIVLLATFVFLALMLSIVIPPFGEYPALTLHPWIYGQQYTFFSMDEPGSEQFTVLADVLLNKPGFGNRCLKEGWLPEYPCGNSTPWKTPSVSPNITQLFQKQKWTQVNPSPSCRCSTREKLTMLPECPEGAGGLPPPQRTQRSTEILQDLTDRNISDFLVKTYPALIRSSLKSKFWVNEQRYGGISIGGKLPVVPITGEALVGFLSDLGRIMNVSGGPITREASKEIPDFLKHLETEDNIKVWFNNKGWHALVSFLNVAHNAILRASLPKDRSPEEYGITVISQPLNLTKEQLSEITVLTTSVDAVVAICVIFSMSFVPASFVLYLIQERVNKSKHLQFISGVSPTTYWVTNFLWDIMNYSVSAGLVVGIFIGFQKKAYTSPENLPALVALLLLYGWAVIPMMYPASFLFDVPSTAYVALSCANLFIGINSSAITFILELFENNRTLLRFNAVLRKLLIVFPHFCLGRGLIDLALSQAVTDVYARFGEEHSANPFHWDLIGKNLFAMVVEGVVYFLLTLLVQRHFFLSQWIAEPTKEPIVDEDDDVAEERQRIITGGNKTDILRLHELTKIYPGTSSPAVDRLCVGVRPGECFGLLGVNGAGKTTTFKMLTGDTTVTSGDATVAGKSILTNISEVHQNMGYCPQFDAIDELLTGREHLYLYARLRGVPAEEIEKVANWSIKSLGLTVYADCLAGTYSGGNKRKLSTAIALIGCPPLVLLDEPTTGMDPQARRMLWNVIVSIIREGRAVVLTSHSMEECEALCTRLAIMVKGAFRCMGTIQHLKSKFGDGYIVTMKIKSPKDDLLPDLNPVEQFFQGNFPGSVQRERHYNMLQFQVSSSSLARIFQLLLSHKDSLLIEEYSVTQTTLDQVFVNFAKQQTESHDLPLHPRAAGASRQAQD
Procedure, shortened: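 Cells transfected with HiBit-tagged human ABCA4 P1380L cDNA were treated for 24 h at 37°C with an eleven-point dilution series (top final 30 μM, 0.3% DMSO).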

ABCC6 WT = molecular target: T3, ABCC6 WT (Homo sapiens, UniProt O95255); assay: ABCC6 WT assay: HiBit protein expression; details: HEK-293 cells transiently expressing HiBit-tagged ABCC6 WT; 24 h treatment; top concentration 20 μM; read-out: ABCC6 WT EC50, Emax
T3 construct: expressed in transfected cells; host or cells: HEK-293 (transient, Lipofectamine 2000)
T3 sequence (O95255 whole entry): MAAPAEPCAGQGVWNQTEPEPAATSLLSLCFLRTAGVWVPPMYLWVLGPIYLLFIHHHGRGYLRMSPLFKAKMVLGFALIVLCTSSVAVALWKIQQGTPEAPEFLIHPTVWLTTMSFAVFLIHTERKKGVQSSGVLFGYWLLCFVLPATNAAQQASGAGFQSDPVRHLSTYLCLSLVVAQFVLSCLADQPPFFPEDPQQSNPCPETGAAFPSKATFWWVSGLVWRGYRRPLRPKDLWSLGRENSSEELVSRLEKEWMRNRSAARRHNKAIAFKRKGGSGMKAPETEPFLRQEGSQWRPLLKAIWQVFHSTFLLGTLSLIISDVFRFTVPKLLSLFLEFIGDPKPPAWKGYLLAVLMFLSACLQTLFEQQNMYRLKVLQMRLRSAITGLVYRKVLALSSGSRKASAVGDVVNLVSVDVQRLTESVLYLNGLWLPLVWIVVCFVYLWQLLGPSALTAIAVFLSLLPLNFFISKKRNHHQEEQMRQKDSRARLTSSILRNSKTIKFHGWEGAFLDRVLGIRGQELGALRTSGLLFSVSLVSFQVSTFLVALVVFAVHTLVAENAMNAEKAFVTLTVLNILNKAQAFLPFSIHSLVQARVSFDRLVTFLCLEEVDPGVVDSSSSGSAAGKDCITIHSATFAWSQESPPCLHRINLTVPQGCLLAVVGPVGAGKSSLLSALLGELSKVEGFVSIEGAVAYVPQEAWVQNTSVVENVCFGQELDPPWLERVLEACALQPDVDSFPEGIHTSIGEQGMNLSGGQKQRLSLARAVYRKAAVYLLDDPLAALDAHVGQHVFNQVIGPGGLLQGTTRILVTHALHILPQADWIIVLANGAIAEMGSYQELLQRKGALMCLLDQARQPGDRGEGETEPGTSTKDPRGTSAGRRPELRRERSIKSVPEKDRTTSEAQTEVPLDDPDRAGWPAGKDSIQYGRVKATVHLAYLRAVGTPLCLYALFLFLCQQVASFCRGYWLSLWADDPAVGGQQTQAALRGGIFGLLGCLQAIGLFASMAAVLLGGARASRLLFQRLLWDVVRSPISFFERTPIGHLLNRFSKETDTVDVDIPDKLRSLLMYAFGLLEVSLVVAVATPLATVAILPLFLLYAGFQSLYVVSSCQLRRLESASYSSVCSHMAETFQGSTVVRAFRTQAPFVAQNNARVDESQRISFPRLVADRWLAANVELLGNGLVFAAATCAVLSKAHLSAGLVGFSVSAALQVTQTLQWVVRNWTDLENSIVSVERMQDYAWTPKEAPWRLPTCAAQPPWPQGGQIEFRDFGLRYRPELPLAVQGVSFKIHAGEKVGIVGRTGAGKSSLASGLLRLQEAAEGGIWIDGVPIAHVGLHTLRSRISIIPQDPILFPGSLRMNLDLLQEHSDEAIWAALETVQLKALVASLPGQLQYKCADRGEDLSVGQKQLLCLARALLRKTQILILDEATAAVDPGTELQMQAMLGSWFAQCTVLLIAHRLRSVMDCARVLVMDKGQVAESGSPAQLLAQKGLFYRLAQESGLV
Procedure, shortened: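 HEK-293 cells transiently transfected with HiBit-tagged human ABCC6 WT cDNA, seeded 24 h post-transfection, treated 24 h at 37° C with ten 2-fold doses (top 20 μM final, 0.15% DMSO). HiBit lytic luminescence reports protein expression; Emax and EC50 derived.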

| SMILES | EC50 (ABCB4 WT) [µM] | EC50 (ABCA4 P1380L) [µM] | EC50 (ABCC6 WT) [µM] |
| --- | --- | --- | --- |
| Cc1cc(C)c(Oc2nc(-c3cncc(Cl)c3)ccc2S(=O)(=O)NCc2ccccc2)c(C)c1 [Compound I-88] | < 25 | 1 to 10 | 1 to 10 |
| CNS(=O)(=O)c1ccc(N2CCN(C)C(=O)C2)nc1Oc1c(C)cc(C)cc1C [Compound I-92] | ≥ 25 | > 25 | 1 to 10 |
| Cc1cc(C)c(Oc2nc(-c3cncc(Cl)c3)ncc2S(N)(=O)=O)c(C)c1Cl [Compound I-93] | ≥ 25 | 1 to 10 | < 25 |

The next lines start with the values.

| EC50 (ABCB4 WT) [µM] | EC50 (ABCA4 P1380L) [µM] | EC50 (ABCC6 WT) [µM] | SMILES |
| --- | --- | --- | --- |
| 1 to 10 | > 25 | 1 to 10 | Cc1cc(C)c(Oc2nc(-c3cncc(Cl)c3)ccc2S(=O)(=O)NCc2cc(C(F)(F)F)ccn2)c(C)c1 [Compound I-87] |
| 1 to 10 | > 25 | < 25 | CNS(=O)(=O)c1ncc(-c2cncc(Cl)c2)nc1Oc1c(C)cc(C)c(Cl)c1C [Compound I-89] |
| 1 to 10 | 1 to 10 | < 1 | Cc1cc(C)c(Oc2nc(-c3cncc(Cl)c3)cnc2S(N)(=O)=O)c(C)c1Cl [Compound I-90] |
| 1 to 10 | 1 to 10 | 1 to 10 | Cc1cc(C)c(Oc2nc(-c3cncc(Cl)c3)ccc2S(=O)(=O)Nc2cnn(C)c2)c(C)c1 [Compound I-94] |
